Experimental data: patent US10143691B2, “Pathogenic control of apoptosis” (CSIR, priority 2014, dated 2018)
“Also recorded” adds a separate entry of the source. Like-named read-outs stand apart in the source and are kept apart here.

How the values were obtained:
hnRNP-K = assay: Immunofluorescence of hnRNP-K cellular location in Ghost(3) cells; format: cell-based
Procedure: (§1) For each experiment, Ghost(3) cells or IPSC-derived primary macrophages were infected or treated with 500 nM Doxorubicin on coverslips, fixed for 10 mins in fresh 4% paraformaldehyde at room temperature, then washed 3 times in PBS and permeabilised for 10 mins in ice-cold methanol at […]. Coverslips were washed once in PBS and incubated in blocking buffer (5% goat serum, 0.3% TritonX100 in PBS) for 60 mins at room temperature. Cells were incubated in primary antibody solution (1% BSA, 0.3% Triton X100 in PBS) overnight at 4° C. Double strand breaks were detected using rabbit polyclonal anti-phosphohistone H2A.X Ser139 (Cell Signaling). Activated ATM was detected using rabbit monoclonal anti-phosphoATM Ser1981 (Cell Signaling). The ability of p53 to regulate apoptosis was detected using rabbit polyclonal antiphosphop53 Ser46 (Cell Signaling). Viral p24 was detected using mouse monoclonal anti-HIV1p24 (AIDS Research and Reference Reagent Program, Division of AIDS, NIAID, NIH). HuR was detected using mouse monoclonal anti-HuR 3A2 (Santa Cruz Biotechnology). hnRNPK was detected using goat polyclonal anti-hnRNPK P20 (Santa Cruz Biotechnology). Coverslips were washed 3 times (5 mins each on an orbital shaker) with wash buffer (0.05% Tween20 in PBS), followed by incubation with secondary antibodies conjugated to either Atto550 or Atto565 or Atto647 for 60 mins at room temperature. Coverslips were washed 3 times (5 mins each on an orbital shaker) with wash buffer (0.05% Tween20 in PBS). Coverslips were incubated in equilibration buffer (0.4% glucose, 2×SCC) for 5 mins and counter stained with 1 mg/ml DAPI (4′,6-diamidino-2-phenylindole; Life Technologies). Coverslips were mounted in glox buffer (3.7 mg/ml glucose oxidase, 1 U catalase) and imaged.
For each experiment, cells were infected or treated with drugs on coverslips, fixed for 10 mins in fresh 4% paraformaldehyde at room temperature, then washed 3 times in PBS and permeabilised for 10 mins in ice-cold methanol at −20° C. Coverslips were washed once in PBS and incubated in blocking buffer (5% goat serum, 0.3% Triton-X100 in PBS) for 60 mins at room temperature. Cells were incubated in primary antibody solution (1% BSA, 0.3% Triton X-100 in PBS) overnight at 4° C. Double strand breaks were detected using rabbit polyclonal anti-phospho-histone H2A.X Ser139 (Cell Signaling). Activated ATM was detected using rabbit monoclonal anti-phospho-ATM Ser1981 (Cell Signaling). The ability of p53 to regulate apoptosis was detected using rabbit polyclonal anti-phospho-p53 Ser46 (Cell Signaling). Viral p24 was detected using mouse monoclonal anti-HIV-1-p24 (AIDS Research and Reference Reagent Program, Division of AIDS, NIAID, NIH). HuR was detected using mouse monoclonal anti-HuR 3A2 (Santa Cruz Biotechnology). hnRNP-K was detected using goat polyclonal anti-hnRNP-K P-20 (Santa Cruz Biotechnology). Coverslips were washed 3 times (5 mins each on an orbital shaker) with wash buffer (0.05% Tween-20 in PBS), followed by incubation with secondary antibodies conjugated to either Atto-550 or Atto-565 or Atto-647 for 60 mins at room temperature. Coverslips were washed 3 times (5 mins each on an orbital shaker) with wash buffer (0.05% Tween-20 in PBS). Coverslips were incubated in equilibration buffer (0.4% glucose, 2×SCC) for 5 mins and counter stained with 1 mg/ml DAPI (4′,6-diamidino-2-phenylindole; Life Technologies). Coverslips were mounted in glox buffer (3.7 mg/ml glucose oxidase, 1 U catalase) and imaged.

Ghost(3) cells = format: cell-based; conditions: for apoptosis of HIV-infected cells: HIV-infected Ghost(3) cells exposed to inhibitor (10 μM), 30 hours post-infection
Procedure: Apoptosis was measured in Ghost(3) cells 30 hours post-infection or drug treatment using the NucView™ 488 Caspase3 Assay Kit (Biotium) in a 96 well format. Data was analysed in MATLAB using a probabilistic region method to measure cell attachment and expressed as percentage cell survival. […] An average of 3000 cells per condition were analysed with the exception of cells treated with Doxorubicin followed by HIV-infection (FIG. 3), cells transfected with lincRNAp21 overexpression constructs followed by Doxorubicin treatment, and cells transfected with full-length lincRNAp21, infected with HIV1 and treated with Nutlin3 (FIG. 25). These latter conditions ( ? ) yielded too few attached cells (<20) at 30 hours for similar analysis.
Apoptosis was measured in Ghost(3) cells 30 hours post-infection or drug treatment using the NucView™ 488 Caspase-3 Assay Kit (Biotium) in a 96 well format. Data was analysed in MATLAB using a probabilistic region method to measure cell attachment and expressed as percentage cell survival. […] An average of 3000 cells per condition were analysed with the exception of cells treated with Doxorubicin followed by HIV-infection (FIG. 27), cells transfected with lincRNA-p21 overexpression constructs followed by Doxorubicin treatment (FIG. 36), and cells transfected with full-length lincRNA-p21, infected with HIV-1 and treated with Nutlin3 (FIG. 45). These latter conditions ( ? ) yielded too few attached cells (<20) at 30 hours for similar analysis.

HuR = assay: Immunofluorescence of HuR cellular location in Ghost(3) cells; format: cell-based; conditions: HIV-infected Ghost(3) cells with inhibitor added (10 μM)
Procedure: as §1, with “Coverslips were washed 3 times (5 mins each on an orbital shaker) with wash buffer (0.05% Tween20 in PBS), followed by incubation with secondary antibodies conjugated to either Atto550 or Atto565 or Atto647 for 60 mins at room temperature. Coverslips were washed 3 times (5 mins each on an orbital shaker) with wash buffer (0.05% Tween20 in PBS). Coverslips were incubated in equilibration buffer (0.4% glucose, 2×SCC) for 5 mins and counter stained with 1 mg/ml DAPI (4′,6-diamidino-2-phenylindole; Life Technologies). Coverslips were mounted in glox buffer (3.7 mg/ml glucose oxidase, 1 U catalase) and imaged.” left out
(§2) For each experiment, cells were infected or treated with drugs on coverslips, fixed for 10 mins in fresh 4% paraformaldehyde at room temperature, then washed 3 times in PBS and permeabilised for 10 mins in ice-cold methanol at −20° C. […] Double strand breaks were detected using rabbit polyclonal anti-phospho-histone H2A.X Ser139 (Cell Signaling). Activated ATM was detected using rabbit monoclonal anti-phospho-ATM Ser1981 (Cell Signaling). The ability of p53 to regulate apoptosis was detected using rabbit polyclonal anti-phospho-p53 Ser46 (Cell Signaling). Viral p24 was detected using mouse monoclonal anti-HIV-1-p24 (AIDS Research and Reference Reagent Program, Division of AIDS, NIAID, NIH). HuR was detected using mouse monoclonal anti-HuR 3A2 (Santa Cruz Biotechnology). hnRNP-K was detected using goat polyclonal anti-hnRNP-K P-20 (Santa Cruz Biotechnology). […]

HIV-1 = HIV-1 infection/replication in Ghost(3) reporter cells (LTR-driven GFP expression); format: cell-based; conditions: Ghost(3) cells exposed to HIV-1 and treated
Procedure: Viral stocks were titred using TZMBI cells and used to infect Ghost(3) cells using an MOI=1.0, or IPSO-derived macrophages using an MOI=0.5. Where indicated, Ghost(3) cells were treated with 10 μM of either Raltegravir, Maraviroc, Tenofovir (AIDS Research and Reference Reagent Program, Division of AIDS, NIAID, NIH) or Nutlin3a (Sigma) for up to 48 hours.
Viral stocks were titred using TZM-BI cells and used to infect Ghost(3) cells using an MOI=1.0, or IPSO-derived macrophages using an MOI=0.5. Where indicated, cells were treated with 10 μM of either Raltegravir, Maraviroc, Tenofovir (AIDS Research and Reference Reagent Program, Division of AIDS, NIAID, NIH) or Doxorubicin (Sigma-Aldrich), or Nutlin3a (Sigma-Aldrich), or MAP2K1 inhibitor (U-0126) or ERK2 inhibitor (FR180204) for up to 48 hours.

lincRNAp21 = assay: lincRNA-p21 expression by RNA FISH spot counts and quantitative RT-PCR; format: cell-based, human; conditions: HIV-infected Ghost(3) cells, qRT-PCR relative to HPRT
Procedure: RNA FISH on Ghost(3) cells was performed according to Raj, 2008 and on primary macrophages according to Schaffer, 2013. For both methods 48 20mer probes (Biosearch) targeted to human lincRNAp21 were synthesised baring a […] C6dT. The amino group was subsequently conjugated to the following NHSester dyes: ATTO565, ATTO647N (ATTOTEC) or Alexa Fluor 647 (Invitrogen). Briefly, oligonucleotide probes were ethanol precipitated and resuspended in 0.1 M sodium tetraborate (Sigma). Approximately 0.3 mg of the NHSester dye (ATTOTEC) was dissolved in dimethyl sulphoxide (Sigma). The dye solution was added to the probe solution and incubated overnight in the dark at 37° C. Following the conjugation reaction, the probes were ethanol precipitated overnight, and resuspended in 0.1 M triethyl ammonium (Sigma). Conjugated probes were separated and purified to enrich for dyeconjugated probes by reverse phase HPLC on a C18 column. […]
For each experiment, Ghost(3) cells or IPSO-derived primary macrophages were infected or treated with 500 nM Doxorubicin over time and total RNA was extracted from cells using TRIzol® (Life Technologies), treated with RQ1 RNase-free DNase (Promega) and reverse transcribed using SuperScript III Reverse Transcriptase (Life Technologies). Quantitative RTPCR was performed using Sso Fast EvaGreen™ supermix (BioRad) on a BioRad CFX96 real-time PCR detection system. […]

H2A.XpSer139 = assay: Immunofluorescence staining of double strand breaks (H2A.XpSer139); format: cell-based; conditions: HIV-1 infected cells treated with 10 μM drug
Procedure: as §1
as §2, with “C. Coverslips were washed once in PBS and incubated in blocking buffer (5% goat serum, 0.3% Triton-X100 in PBS) for 60 mins at room temperature.” for “C.”

[1] = cells transfected 24 hours with full-length or truncated lincRNA-p21, then Nutlin3a, absence of HIV-1
[2] = full-length lincRNA-p21 transfected 24 hours, HIV-1 infected 24 hours, then Nutlin3a
[3] = truncated lincRNA-p21 transfected 24 hours, HIV-1 infected 24 hours, then Nutlin3a
[4] = HIV-infected Ghost(3) cells exposed to MAP2K1 or ERK2 inhibitor (10 μM), 30 hours post-infection
[5] = Ghost(3) cells exposed to HIV-1 and concurrently treated with 10 μM antiretroviral

| Compound | cellular location of HuR (HuR) | cellular location of hnRNP-K (hnRNP-K; [4]) | apoptosis of HIV-infected cells (Ghost(3) cells) | HIV-1 infection / replication (GFP expression) (HIV-1) | cellular location of hnRNP-K (hnRNP-K; [5]) | also measured |
| --- | --- | --- | --- | --- | --- | --- |
| COc1ccc(C2=NC(c3ccc(Cl)cc3)C(c3ccc(Cl)cc3)N2C(=O)N2CCNC(=O)C2)c(OC(C)C)c1 (single isomer, unassigned; (-)) [Nutlin3a, (−)-4-(4,5-Bis(4-chlorophenyl)-2-(2-isopropoxy-4-methoxyphenyl)-4,5-dihydro-1H-imidazole-1-carbonyl)piperazin-2-one] |  |  |  |  |  | cellular location of hnRNP-K (hnRNP-K; Ghost(3) cells, Nutlin3a (10 μM) added 24 hours post HIV-1 infection): nuclear localisation of hnRNP-K at 48 hours in GFP-positive cells only; also recorded: nuclear localisation of hnRNPK in HIV-infected cells only; also recorded: nuclear localisation of hnRNP-K in HIV-infected cells only; also recorded: nuclear localisation of hnRNPK at 48 hours in GFP-positive cells only; cellular location of hnRNP-K (hnRNP-K; Ghost(3) cells, drug only, no HIV infection): cytoplasmic hnRNP-K; also recorded: no nuclear hnRNPK; also recorded: no nuclear hnRNP-K; also recorded: cytoplasmic hnRNPK; cellular location of hnRNP-K (hnRNP-K; Nutlin3a added prior to HIV1 infection): no nuclear hnRNPK was observed; cellular location of hnRNP-K (hnRNP-K; [1]): cytoplasmic hnRNPK; also recorded: cytoplasmic hnRNP-K; cellular location of hnRNP-K (hnRNP-K; [2]): showed nuclear hnRNP-K; also recorded: show nuclear hnRNPK; cellular location of hnRNP-K (hnRNP-K; [3]): show nuclear hnRNP-K; also recorded: also showed nuclear hnRNPK; also recorded: also showed nuclear hnRNP-K; also recorded: show nuclear hnRNPK; apoptosis (Ghost(3) cells; [1]): no apoptosis; apoptosis (Ghost(3) cells; [2]): undergo apoptosis within 24 hours of Nutlin3a addition; also recorded: underwent apoptosis; apoptosis (Ghost(3) cells; [3]): do not undergo apoptosis; also recorded: did not undergo apoptosis |
| Nc1n[nH]c2nnc(-c3c(-c4ccccc4)nn4ccccc34)cc12 [ERK2 inhibitor, 5-(2-phenylpyrazolo[1,5-a]pyridin-3-yl)-1H-pyrazolo[3,4-c]pyridazin-3-amine] | Cytoplasmic HuR is not observed; also recorded: HIV-1 able to sequester HuR in the nucleus | strong nuclear localisation of hnRNP-K | infected cells underwent apoptosis |  |  |  |
| N#CC(=C(N)Sc1ccccc1N)C(C#N)=C(N)Sc1ccccc1N [MAP2K1 inhibitor, 1,4-diamino-2,3-dicyano-1,4-bis(2-aminophenylthio)butadiene] | cytoplasmic (and nuclear) HuR | strong nuclear localisation of hnRNP-K | infected cells underwent apoptosis |  |  |  |
| Cc1nnc(C(=O)NC(C)(C)c2nc(C(=O)NCc3ccc(F)cc3)c(O)c(=O)n2C)o1 [Raltegravir] |  |  |  | no GFP expression | no nuclear hnRNPK over time; also recorded: cytoplasmic hnRNPK | lincRNA-p21 expression (lincRNAp21): no change in lincRNAp21 expression; also recorded: does not affect lincRNAp21 expression; H2A.X staining in HIV-infected cells (H2A.XpSer139): abrogate this effect |
| C[C@H](Cn1cnc2c(N)ncnc21)OCP(=O)(O)O [Tenofovir] |  |  |  |  | no nuclear hnRNPK |  |
| Maraviroc |  |  |  | remained uninfected | no nuclear hnRNPK |  |
